Source: paper PMC7192455, “Exploring novel bacterial terpene synthases” (PLoS ONE, 2020)

Key:
Test in all cases: product identification by GC-QToF
Format in all cases: biochemical
[1] = molecular target: T1, KaGerS (AHH94051.1) (Kutzneria viridogrisea, UniProt W5W0G4); conditions: 75 uM FPP, 5 mM MgCl2, 25 mM Tris-HCl pH 7.8, 28 C overnight; products germacradienol and germacrene D
T1 construct: gene KALB_676; codon-optimised, pETM11, N-terminal His-tag (TEV cleavable), E. coli, Ni-NTA purified
Excerpt: product identification by GC-QToF on KaGerS (AHH94051.1) | we tested its functionality with FPP in in vitro conditions. This yielded germacradienol and germacrene D

[2] = molecular target: T2, MiGerS (ADU09376.1), germacatriene synthase (Micromonospora aurantiaca (nom. illeg.), UniProt A0ABQ6UH67); conditions: 75 uM FPP, 5 mM MgCl2, 25 mM Tris-HCl pH 7.8, 28 C overnight; products germacrene A (seen as beta-elemene) and 1(10),4,11-germacratriene
T2 construct: gene F6X54_13130; codon-optimised, pETM11, N-terminal His-tag (TEV cleavable), E. coli, Ni-NTA purified

[3] = molecular target: T3, ScAroS (KYF56472.1), aromandendrene synthase (Sorangium cellulosum, UniProt Z9C2K8JLD0); conditions: 75 uM FPP, 5 mM MgCl2, 25 mM Tris-HCl pH 7.8, 28 C overnight; product aromadendrene
T3 construct: codon-optimised, pETM11, N-terminal His-tag (TEV cleavable), E. coli, Ni-NTA purified
T3 sequence (Z9C2K8JLD0 1-329): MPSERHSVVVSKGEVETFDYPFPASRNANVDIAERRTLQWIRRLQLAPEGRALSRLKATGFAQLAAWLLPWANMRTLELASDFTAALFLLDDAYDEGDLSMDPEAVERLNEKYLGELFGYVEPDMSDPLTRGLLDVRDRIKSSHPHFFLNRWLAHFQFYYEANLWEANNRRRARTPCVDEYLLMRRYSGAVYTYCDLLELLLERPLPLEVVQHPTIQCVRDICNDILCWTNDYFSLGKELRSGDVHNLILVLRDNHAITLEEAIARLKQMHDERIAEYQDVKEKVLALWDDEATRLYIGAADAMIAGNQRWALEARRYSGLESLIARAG

[4] = molecular target: T4, ScEpiS (CAN96536.1), 10-epi-cubebol synthase (Sorangium cellulosum, UniProt A9GK58); conditions: 5 mM MgCl2, 25 mM Tris-HCl pH 7.8, 28 C overnight
T4 construct: gene sce6369; codon-optimised, pETM11, N-terminal His-tag (TEV cleavable), E. coli, Ni-NTA purified
T4 sequence (A9GK58 1-315): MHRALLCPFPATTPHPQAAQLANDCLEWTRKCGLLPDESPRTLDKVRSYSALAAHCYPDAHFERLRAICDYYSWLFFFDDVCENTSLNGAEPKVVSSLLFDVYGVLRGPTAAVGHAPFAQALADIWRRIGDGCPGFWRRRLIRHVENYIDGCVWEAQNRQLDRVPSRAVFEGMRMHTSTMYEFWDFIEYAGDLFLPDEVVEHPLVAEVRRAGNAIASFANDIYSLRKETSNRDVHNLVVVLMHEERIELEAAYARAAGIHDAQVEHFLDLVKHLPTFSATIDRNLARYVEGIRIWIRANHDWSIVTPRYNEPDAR

[5] = molecular target: T5, RrBerS (AHY45426.1) (Rubrobacter radiotolerans, UniProt A0A023WZP4); conditions: 5 mM MgCl2, 25 mM Tris-HCl pH 7.8, 28 C overnight
T5 construct: gene RradSPS_0143; codon-optimised, pETM11, N-terminal His-tag (TEV cleavable), E. coli, Ni-NTA purified
T5 sequence (A0A023WZP4 1-348): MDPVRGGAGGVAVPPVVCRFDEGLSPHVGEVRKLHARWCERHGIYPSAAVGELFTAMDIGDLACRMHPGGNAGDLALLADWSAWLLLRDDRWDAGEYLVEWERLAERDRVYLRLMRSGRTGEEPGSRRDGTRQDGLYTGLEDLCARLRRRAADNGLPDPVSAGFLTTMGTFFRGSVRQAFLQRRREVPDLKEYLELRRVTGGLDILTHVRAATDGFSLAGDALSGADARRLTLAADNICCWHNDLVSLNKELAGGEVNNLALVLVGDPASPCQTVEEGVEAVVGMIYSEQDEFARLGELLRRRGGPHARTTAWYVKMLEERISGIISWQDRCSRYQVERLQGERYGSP

[6] = molecular target: T6, RrNerS (AHY47823.1), linalool/nerolidol synthase (Rubrobacter radiotolerans, UniProt A0A023X648); conditions: 5 mM MgCl2, 25 mM Tris-HCl pH 7.8, 28 C overnight
T6 construct: gene RradSPS_2540; codon-optimised, pETM11, N-terminal His-tag (TEV cleavable), E. coli, Ni-NTA purified
T6 sequence (A0A023X648 1-315): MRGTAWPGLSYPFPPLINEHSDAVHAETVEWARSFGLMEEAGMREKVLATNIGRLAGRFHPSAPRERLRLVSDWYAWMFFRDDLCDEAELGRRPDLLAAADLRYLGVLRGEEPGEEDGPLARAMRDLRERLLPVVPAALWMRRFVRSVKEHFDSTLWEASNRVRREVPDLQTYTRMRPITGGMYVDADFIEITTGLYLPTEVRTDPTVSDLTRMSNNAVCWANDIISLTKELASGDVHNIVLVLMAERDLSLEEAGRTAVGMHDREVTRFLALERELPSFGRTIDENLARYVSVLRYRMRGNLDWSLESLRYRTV

[7] = molecular target: T7, ScGeoS, geosmin synthase (CAB41566.1) (Streptomyces coelicolor, UniProt Q9X839); conditions: 75 uM FPP, 5 mM MgCl2, 25 mM Tris-HCl pH 7.8, 28 C overnight; products geosmin, germacradienol, germacrene D; positive control
T7 construct: gene cyc2; bi-domain enzyme, recombinant, purified; pETM11 N-terminal His-tag
T7 sequence (Q9X839 whole entry): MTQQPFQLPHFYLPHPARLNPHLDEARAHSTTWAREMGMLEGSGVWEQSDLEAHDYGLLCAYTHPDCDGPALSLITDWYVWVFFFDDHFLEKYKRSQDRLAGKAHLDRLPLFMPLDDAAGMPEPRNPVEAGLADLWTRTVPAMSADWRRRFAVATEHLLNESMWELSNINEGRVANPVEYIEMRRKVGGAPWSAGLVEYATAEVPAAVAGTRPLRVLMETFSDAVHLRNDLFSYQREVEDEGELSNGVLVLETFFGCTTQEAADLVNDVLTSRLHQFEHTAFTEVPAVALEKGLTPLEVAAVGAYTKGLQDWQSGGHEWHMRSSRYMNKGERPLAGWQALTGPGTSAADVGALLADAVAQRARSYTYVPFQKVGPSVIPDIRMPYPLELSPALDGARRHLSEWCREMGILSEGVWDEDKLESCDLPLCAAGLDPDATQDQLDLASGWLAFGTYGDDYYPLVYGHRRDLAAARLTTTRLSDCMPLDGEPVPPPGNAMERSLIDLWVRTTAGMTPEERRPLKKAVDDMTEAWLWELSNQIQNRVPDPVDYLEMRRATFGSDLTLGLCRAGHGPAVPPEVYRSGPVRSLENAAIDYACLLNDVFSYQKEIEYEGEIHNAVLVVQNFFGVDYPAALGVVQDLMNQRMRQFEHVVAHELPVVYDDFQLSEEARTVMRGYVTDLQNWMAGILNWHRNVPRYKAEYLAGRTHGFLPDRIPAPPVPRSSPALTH

T1 sequence (W5W0G4 1-363): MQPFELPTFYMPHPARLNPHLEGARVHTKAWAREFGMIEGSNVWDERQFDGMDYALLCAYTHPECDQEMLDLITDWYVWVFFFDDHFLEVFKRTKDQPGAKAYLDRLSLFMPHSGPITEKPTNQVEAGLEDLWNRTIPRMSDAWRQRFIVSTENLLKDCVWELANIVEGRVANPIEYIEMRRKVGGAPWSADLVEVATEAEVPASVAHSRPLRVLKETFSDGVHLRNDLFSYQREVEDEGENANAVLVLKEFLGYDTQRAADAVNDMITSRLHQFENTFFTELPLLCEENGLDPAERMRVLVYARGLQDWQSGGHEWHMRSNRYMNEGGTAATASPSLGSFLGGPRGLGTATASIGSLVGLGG
T2 sequence (A0ABQ6UH67 entry or part of it): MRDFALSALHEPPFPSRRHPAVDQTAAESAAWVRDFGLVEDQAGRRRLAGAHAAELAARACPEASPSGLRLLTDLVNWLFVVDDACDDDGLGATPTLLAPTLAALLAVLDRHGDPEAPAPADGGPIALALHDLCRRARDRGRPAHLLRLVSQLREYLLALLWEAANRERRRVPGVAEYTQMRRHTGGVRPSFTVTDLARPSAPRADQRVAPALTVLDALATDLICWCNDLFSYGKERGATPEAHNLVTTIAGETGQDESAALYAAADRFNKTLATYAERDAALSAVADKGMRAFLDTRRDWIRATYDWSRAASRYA

Compound	product identification by GC-QToF [1]	product identification by GC-QToF [2]	product identification by GC-QToF [3]	product identification by GC-QToF ([4]; 75 uM FPP, products 10-epi-cubebol and others)	product identification by GC-QToF ([5]; 75 uM FPP, product alpha-bergamotene)	product identification by GC-QToF ([6]; 75 uM FPP, product trans-nerolidol)	product identification by GC-QToF [7]	product identification by GC-QToF ([4]; 100 uM GPP, products cis/trans-beta-ocimene and linalool)	product identification by GC-QToF ([5]; 100 uM GPP, product linalool)	product identification by GC-QToF ([6]; 100 uM GPP, products R- and S-linalool)
CC(C)=CCC/C(C)=C/CC/C(C)=C/COP(=O)(O)OP(=O)(O)O [FPP]	we tested its functionality with FPP in in vitro conditions. This yielded germacradienol and germacrene D	incubated with FPP yielded β-elemene, and 8-isopropenyl-1,5-dimethyl-1,5-cyclodecadiene	converted FPP into only aromadendrene in in vitro analysis	When ScEpiS was incubated with FPP the products obtained were 10-epi-α-cubinene	also showed activity with both FPP and GPP, yielding α-bergamotene	with FPP yielded a single product that was identified as trans-nerolidol by GC–QToF analysis	purified geosmin synthase yielded the sesquiterpenoids geosmin, germacradienol and germacrene D	–	–	–
CC(C)=CCC/C(C)=C/COP(=O)(O)OP(=O)(O)O [GPP]	–	–	–	–	–	–	–	with GPP yielded the monoterpene products cis- and trans-β-ocimene	also showed activity with both FPP and GPP, yielding α-bergamotene	Incubation with GPP yielded both R- and S- linalool isomers
